# Experimental data taken from article PMC12298351, “Novel 3,19-(N-Phenyl-3-(4-fluorophenyl)-pyrazole) Acetal of Andrographolide Promotes Cell Cycle Arrest and Apoptosis in MDA-MB-231 Breast Cancer Cells” (Pharmaceuticals, 2025).
# Columns and labels:
# OVCAR-5 = settings: OVCAR-5, Ovarian
# MALME-3M = settings: Melanoma
# SNB-19 = assay type: cell-based; settings: SNB-19, CNS
# COLO 205 = settings: COLO 205, Colon
# MDA-MB-468 = settings: MDA-MB-468, Breast
# CAKI-1 = settings: CAKI-1, Renal
# DU-145 = settings: DU-145, Prostate
# HT29 = settings: HT29, Colon
# IGROV1 = settings: IGROV1, Ovarian
# SK-MEL-5 = settings: SK-MEL-5, Melanoma
# KM12 = settings: KM12, Colon
# SNB-75 = settings: SNB-75, CNS
# SF-268 = settings: SF-268, CNS
# SK-OV-3 = settings: SK-OV-3, Ovarian
# SW-620 = settings: SW-620, Colon
# BT-549 = assay type: cell-based; settings: BT-549, Breast
# SK-MEL-28 = settings: SK-MEL-28, Melanoma
# K-562 = settings: K-562, Leukemia
# MCF7 = settings: MCF7, Breast
# 786-0 = settings: 786-0, Renal
# UO-31 = settings: UO-31, Renal
# [1] = read-out: 50% lethal concentration (LC50)
# [2] = read-out: 50% lethal concentration (LC50), Renal
structure (smiles),measurement,setting,value
C=C1CCC2C3(C)COC(c4cn(-c5ccccc5)nc4-c4cccc(Cl)c4)OC3CCC2(C)C1CC=C1C(=O)OCC1O (stereo not shown) [1d],GI50,OVCAR-5,1.78 µM
same,Total growth inhibition (TGI),OVCAR-5,4.21 µM
same,CC50,OVCAR-5; [1],7.73 µM
same,GI50,HS 578T; Breast,1.91 µM
same,Total growth inhibition (TGI),HS 578T; Breast,4.85 µM
same,CC50,"HS 578T; read-out: 50% lethal concentration (LC50), Breast",> 100 µM
same,GI50,SN12C; Renal,1.65 µM
same,Total growth inhibition (TGI),SN12C; Renal,3.62 µM
same,CC50,SN12C; [2],7.92 µM
same,GI50,MALME-3M,1.47 µM
same,Total growth inhibition (TGI),MALME-3M,2.85 µM
same,GI50,NCI/ADR-RES; Ovarian,1.88 µM
same,Total growth inhibition (TGI),NCI/ADR-RES; Ovarian,4.77 µM
same,CC50,"NCI/ADR-RES; read-out: 50% lethal concentration (LC50), Ovarian",> 100 µM
same,GI50,SNB-19,2.24 µM
same,Total growth inhibition (TGI),SNB-19,6.04 µM
same,CC50,SNB-19; [1],54.8 µM
same,GI50,COLO 205,1.98 µM
same,Total growth inhibition (TGI),COLO 205,4.24 µM
same,GI50,MDA-MB-468,1.74 µM
same,Total growth inhibition (TGI),MDA-MB-468,3.31 µM
same,CC50,MDA-MB-468; [1],6.3 µM
same,GI50,CAKI-1,1.32 µM
same,Total growth inhibition (TGI),CAKI-1,2.66 µM
same,CC50,CAKI-1; [1],5.39 µM
same,Total growth inhibition (TGI),"NCI-H460; NCI-H460, Non-Small Cell Lung",3.34 µM
same,GI50,"NCI-H460; NCI-H460, Non-Small-Cell Lung",1.68 µM
same,CC50,"NCI-H460; read-out: 50% lethal concentration (LC50), NCI-H460, Non-Small Cell Lung",6.66 µM
same,GI50,LOX IMVI; Melanoma,1.61 µM
same,Total growth inhibition (TGI),LOX IMVI; Melanoma,2.97 µM
same,CC50,"LOX IMVI; read-out: 50% lethal concentration (LC50), Melanoma",5.5 µM
same,GI50,DU-145,1.88 µM
same,Total growth inhibition (TGI),DU-145,3.98 µM
same,CC50,DU-145; [1],8.43 µM
same,GI50,HT29,1.49 µM
same,Total growth inhibition (TGI),HT29,3.13 µM
same,CC50,HT29; [1],6.57 µM
same,GI50,IGROV1,1.39 µM
same,Total growth inhibition (TGI),IGROV1,3.22 µM
same,CC50,IGROV1; [1],7.5 µM
same,GI50,SK-MEL-5,1.63 µM
same,Total growth inhibition (TGI),SK-MEL-5,3 µM
same,CC50,SK-MEL-5; [1],5.53 µM
same,GI50,KM12,1.67 µM
same,Total growth inhibition (TGI),KM12,3.32 µM
same,GI50,ACHN; Renal,1.64 µM
same,Total growth inhibition (TGI),ACHN; Renal,3.01 µM
same,CC50,ACHN; [2],5.52 µM
same,GI50,SNB-75,1.12 µM
same,Total growth inhibition (TGI),SNB-75,3.14 µM
same,CC50,SNB-75; [1],8.84 µM
same,GI50,SF-268,1.6 µM
same,Total growth inhibition (TGI),SF-268,3.34 µM
same,CC50,SF-268; [1],6.94 µM
same,GI50,SK-OV-3,5.86 µM
same,Total growth inhibition (TGI),SK-OV-3,33.4 µM
same,CC50,SK-OV-3; [1],> 100 µM
same,GI50,"MDA-MB-231; MDA-MB-231, Breast",1.49 µM
same,Total growth inhibition (TGI),"MDA-MB-231; MDA-MB-231/ATCC, Breast",2.99 µM
same,CC50,"MDA-MB-231; read-out: 50% lethal concentration (LC50), MDA-MB-231/ATCC, Breast",5.97 µM
same,GI50,SW-620,1.53 µM
same,Total growth inhibition (TGI),SW-620,3.4 µM
same,CC50,SW-620; [1],7.55 µM
same,GI50,BT-549,1.57 µM
same,Total growth inhibition (TGI),BT-549,3.63 µM
same,Total growth inhibition (TGI),"HOP-92; HOP-92, Non-Small Cell Lung",3.11 µM
same,GI50,"HOP-92; HOP-92, Non-Small-Cell Lung",1.56 µM
same,CC50,"HOP-92; read-out: 50% lethal concentration (LC50), HOP-92, Non-Small Cell Lung",6.2 µM
same,Total growth inhibition (TGI),"NCI-H226; NCI-H226, Non-Small Cell Lung",3.37 µM
same,GI50,"NCI-H226; NCI-H226, Non-Small-Cell Lung",1.76 µM
same,CC50,"NCI-H226; read-out: 50% lethal concentration (LC50), NCI-H226, Non-Small Cell Lung",6.46 µM
same,GI50,SK-MEL-28,1.8 µM
same,Total growth inhibition (TGI),SK-MEL-28,3.37 µM
same,CC50,SK-MEL-28; [1],6.33 µM
same,GI50,K-562,2.41 µM
same,CC50,K-562; [1],> 100 µM
same,Total growth inhibition (TGI),A549/ATCC; Non-Small Cell Lung,11.3 µM
same,GI50,A549/ATCC; Non-Small-Cell Lung,2.82 µM
same,CC50,"A549/ATCC; read-out: 50% lethal concentration (LC50), Non-Small Cell Lung",69.1 µM
same,GI50,MCF7,1.48 µM
same,Total growth inhibition (TGI),MCF7,66.8 µM
same,CC50,MCF7; [1],> 100 µM
same,GI50,786-0,2.31 µM
same,Total growth inhibition (TGI),786-0,6.1 µM
same,CC50,786-0; [1],83.4 µM
same,GI50,UO-31,1.3 µM
same,Total growth inhibition (TGI),UO-31,2.71 µM
same,CC50,UO-31; [1],5.63 µM
